1 compound from ChEMBL document CHEMBL5726109, “Histone deacetylase inhibitors and compositions and methods of use thereof” (2017) can be followed below.

The target in this assay is Histone deacetylase 4 (Homo sapiens, UniProt P56524). Kind of assay: Inhibition Assay: 2 μl (200×) of each diluted solution and each control (full activity: 100% DMSO alone or full inhibition 1 mM) is stamped into V-bottomed polypropylene 384-well compound plates using either the Bravo (384-well head from Agilent) or 12.5 μl 16-channel Matrix multi-channel pipette (Matrix Technologies Ltd).
Sequence of Histone deacetylase 4 (P56524 whole entry): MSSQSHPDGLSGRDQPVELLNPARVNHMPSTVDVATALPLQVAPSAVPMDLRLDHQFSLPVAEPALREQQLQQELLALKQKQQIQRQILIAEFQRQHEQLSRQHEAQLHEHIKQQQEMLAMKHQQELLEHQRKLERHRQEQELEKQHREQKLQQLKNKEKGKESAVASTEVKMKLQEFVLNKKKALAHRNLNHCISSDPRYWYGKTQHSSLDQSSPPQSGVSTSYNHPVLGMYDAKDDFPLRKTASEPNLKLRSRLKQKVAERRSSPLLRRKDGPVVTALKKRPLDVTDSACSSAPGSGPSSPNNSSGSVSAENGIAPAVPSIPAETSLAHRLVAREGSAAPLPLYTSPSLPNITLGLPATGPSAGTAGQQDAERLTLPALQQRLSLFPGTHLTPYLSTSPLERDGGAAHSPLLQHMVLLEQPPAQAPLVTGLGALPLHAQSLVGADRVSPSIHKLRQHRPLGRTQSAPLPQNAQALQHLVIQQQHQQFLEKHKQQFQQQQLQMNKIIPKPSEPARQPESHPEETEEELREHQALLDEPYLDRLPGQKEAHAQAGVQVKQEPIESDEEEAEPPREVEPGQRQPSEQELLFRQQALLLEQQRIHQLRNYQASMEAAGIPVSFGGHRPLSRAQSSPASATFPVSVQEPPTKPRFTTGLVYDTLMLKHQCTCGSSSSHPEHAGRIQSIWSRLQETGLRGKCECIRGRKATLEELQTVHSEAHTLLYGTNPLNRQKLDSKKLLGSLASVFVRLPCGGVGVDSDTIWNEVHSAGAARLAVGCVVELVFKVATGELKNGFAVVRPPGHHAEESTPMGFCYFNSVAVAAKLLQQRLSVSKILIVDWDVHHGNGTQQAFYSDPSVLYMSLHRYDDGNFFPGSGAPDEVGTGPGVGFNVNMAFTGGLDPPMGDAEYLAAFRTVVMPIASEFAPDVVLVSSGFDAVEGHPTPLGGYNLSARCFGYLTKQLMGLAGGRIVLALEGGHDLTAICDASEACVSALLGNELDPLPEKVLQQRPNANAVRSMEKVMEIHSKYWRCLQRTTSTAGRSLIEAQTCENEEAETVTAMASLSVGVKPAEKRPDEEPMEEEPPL

SMILES strings stand for the structures. pIC50: −log10 of the molar value.

In turn, `Cc1c(F)cccc1[C@@]1(C(=O)NO)C=C(c2cnccn2)CC1` gave a pIC50 of 5.62.

The term pIC50 denotes the negative decadic logarithm of the IC50, by convention in mol/L.
